Experimental data published in patent US9717222B2, “Taste independent brain nutrient sensor that mediates hunger” (New York University, priority 2014, dated 2017).
Entries after “also recorded” stand apart in the source; their conditions may differ.

Tests used:
hemolymph glycemia = test: Prandial rise of hemolymph glycemia after glucose feeding with or without phlorizin; assay type: in vivo, Drosophila melanogaster; conditions: 18-hour starved flies fed 100 mM glucose with 10 mM phlorizin for 20 minutes (FIG. 1b)
Procedure: Glycogen and glycemia were measured as previously described^6. For the prandial rise of hemolymph glycemia, flies were starved for 18 hours, and then fed with 100 mM glucose (with or without 10 mM phlorizin) for 15-20 minutes. Their hemolymph was immediately collected and measured.

Drosophila melanogaster = test: Two-choice feeding assay (food preference); assay type: in vivo; conditions: for food choice: 200 mM L-glucose+phlorizin versus 50 mM D-glucose+phlorizin: 18 hours food deprivation (FIG. 4); for food choice: glucose mixed with phlorizin versus plain agar: 100 mM glucose
Procedure: Feeding assays were performed as previously described^6 using 50 flies per two-choice arena. Briefly, ˜50 4-8 days old male flies were starved in an empty vial with wet Kim wipe for 5 or 18 hours, and then given a choice between two sugars, or a sugar and plain agar for 2 hours. Food preference was determined as percent preference index (PI %) by scoring the abdomen color of each fly: % PI=(#eaten food1+0.5×#eaten both)−(#eaten food2+0.5×#eaten both)]/(total #flies eaten) All sugars, except for L-glucose (Carbosynth), were from Sigma. For FIG. 1c, 10 mM phlorizin (Sigma) was added to warm agar with or without sugar. For the experiments in the dark, individual plates were wrapped in aluminum foil and then placed in a dark drawer while tested flies were making a choice between the two substrates. For the neural silencing experiments, flies bearing UAS-Kir2.1, Ptubulin-GAL80^ts, and a GAL4 driver were treated as described^17. These flies were raised at 18° C., incubated at 29° C. for 40 hours, starved at 29° C. for next 18 hrs and then tested in the two-choice assay at room temperature. For a negative control, the flies were raised and starved at 18° C., and tested at room temperature. Because metabolism is slower at 18° C. than at 25-29° C., the flies at 18° C. needed to be starved for a longer period. Thus, we determined that the 18 hours of starvation at 25-29° C. is equivalent to the 50-60 hours of starvation at 18° C. Also, see FIG. 11.

For `O=C(CCc1ccc(O)cc1)c1c(O)cc(O)cc1O[C@@H]1O[C@H](CO)[C@@H](O)[C@H](O)[C@H]1O` [Phlorizin], the “prandial rise in hemolymph glycemia” value (hemolymph glycemia) was “preventing a prandial rise in glycemia”, the “food choice: 200 mM L-glucose+phlorizin versus 50 mM D-glucose+phlorizin” value (Drosophila melanogaster; control flies) was “chose the more concentrated (sweeter) L-glucose; also recorded: chose the sweeter L-glucose” and the “food choice: glucose mixed with phlorizin versus plain agar” value (Drosophila melanogaster; control poxnΔM22-B5;SuperA158, 18 h food deprived, 10 mM phlorizin (FIG. 1c)) was “can distinguish glucose mixed with phlorizin from agar”. For the same molecule, the “food choice: 200 mM L-glucose+phlorizin versus 50 mM D-glucose+phlorizin” value (Drosophila melanogaster; taste-blind (poxnΔM22-B5) and sugar-blind (Gr5a;Gr64a) mutants) was “failed to discriminate between Lglucose+phlorizin and D-glucose+phlorizin; also recorded: showed equal preference for these two enantiomers”, the “food choice: fructose mixed with phlorizin versus plain agar” value (Drosophila melanogaster; taste-blind poxnΔM22-B5, 18 h food deprived, 100 mM fructose, 10 mM phlorizin (FIG. 1c)) was “able to detect the nutritional value of fructose mixed with phlorizin” and the “food choice: glucose mixed with phlorizin versus plain agar” value (Drosophila melanogaster; taste-blind poxnΔM22-B5, 18 h food deprived, 10 mM phlorizin (FIG. 1c)) was “failed to consume glucose mixed with phlorizin”.
